Reference: US20240058315A1, “Pyridine and Pyrazine derivative for the Treatment of CF, COPD, and Bronchiectasis” (NOVARTIS AG, priority 2019, published 2024)

Legend:
CYP2B6 = experiment: Induction of CYP2B6; assay type: in vitro ADME
OATP1B3 = OATP1B3 (Homo sapiens (Human), UniProt Q9NPD5); experiment: in vitro inhibition of OATP1B3; assay type: in vitro ADME
ΔF508-CFTR = ΔF508-CFTR (Homo sapiens (Human), UniProt P13569, DEL508-508); experiment: CFTR potentiator assays (membrane potential, IonWorks Quattro, Ussing chamber ion transport); assay type: cell-based; conditions: CFTR EC50 in 'the data measurements described above'; which of the potentiator assays is not stated
Chain of ΔF508-CFTR (P13569 other isoform, or with tags, fused parts or gaps del F508-F508): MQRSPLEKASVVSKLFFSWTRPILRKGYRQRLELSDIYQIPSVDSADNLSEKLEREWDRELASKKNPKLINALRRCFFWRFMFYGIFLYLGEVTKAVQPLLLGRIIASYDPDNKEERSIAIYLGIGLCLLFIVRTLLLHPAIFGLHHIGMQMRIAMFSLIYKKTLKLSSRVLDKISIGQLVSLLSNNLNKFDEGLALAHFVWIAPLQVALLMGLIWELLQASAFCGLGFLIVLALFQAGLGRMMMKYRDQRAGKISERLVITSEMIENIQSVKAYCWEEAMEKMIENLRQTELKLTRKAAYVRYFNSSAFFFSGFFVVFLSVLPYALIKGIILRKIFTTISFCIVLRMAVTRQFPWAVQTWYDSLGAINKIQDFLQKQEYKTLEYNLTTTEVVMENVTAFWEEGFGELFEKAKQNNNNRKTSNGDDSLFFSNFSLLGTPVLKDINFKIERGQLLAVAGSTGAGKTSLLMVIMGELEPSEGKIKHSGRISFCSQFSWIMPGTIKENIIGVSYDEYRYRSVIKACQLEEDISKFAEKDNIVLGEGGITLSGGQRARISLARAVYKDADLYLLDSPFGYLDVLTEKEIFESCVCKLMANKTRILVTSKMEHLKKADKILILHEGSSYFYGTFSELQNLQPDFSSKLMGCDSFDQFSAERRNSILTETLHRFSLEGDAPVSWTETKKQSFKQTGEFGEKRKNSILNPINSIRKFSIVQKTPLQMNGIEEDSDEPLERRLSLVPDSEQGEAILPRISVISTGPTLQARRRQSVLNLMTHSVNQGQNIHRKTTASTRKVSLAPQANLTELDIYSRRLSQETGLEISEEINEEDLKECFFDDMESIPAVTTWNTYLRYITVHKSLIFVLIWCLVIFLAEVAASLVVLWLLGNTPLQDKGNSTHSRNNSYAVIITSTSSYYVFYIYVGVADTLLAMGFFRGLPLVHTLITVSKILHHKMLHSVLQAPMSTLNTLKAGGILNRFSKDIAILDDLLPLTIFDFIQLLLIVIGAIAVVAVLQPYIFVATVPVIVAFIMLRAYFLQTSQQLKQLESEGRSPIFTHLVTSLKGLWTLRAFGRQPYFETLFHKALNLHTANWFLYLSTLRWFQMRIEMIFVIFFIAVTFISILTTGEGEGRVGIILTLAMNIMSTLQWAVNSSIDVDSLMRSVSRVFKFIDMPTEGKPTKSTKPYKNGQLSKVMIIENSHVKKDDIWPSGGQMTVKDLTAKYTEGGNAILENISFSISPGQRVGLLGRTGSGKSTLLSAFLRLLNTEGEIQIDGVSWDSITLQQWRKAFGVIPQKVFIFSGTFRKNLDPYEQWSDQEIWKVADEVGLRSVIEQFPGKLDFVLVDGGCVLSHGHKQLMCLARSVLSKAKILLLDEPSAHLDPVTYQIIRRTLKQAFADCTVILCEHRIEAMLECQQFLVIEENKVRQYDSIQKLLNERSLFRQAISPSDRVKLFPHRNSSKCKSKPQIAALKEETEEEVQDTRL
Source text: CFTR activity can be quantified by measuring the transmembrane potential. The means for measuring the transmembrane potential in a biological system can employ a number of methods including electrophysiological and optical fluorescence-based membrane potential assays.
The optical membrane potential assay utilises a negatively charged potentiometric dye, such as the FLIPR membrane potential dye (FMP) (see Baxter D F, Kirk M, Garcia A F, Raimondi A, Holmqvist M H, Flint K K, Bojanic D, Distefano P S, Curtis R, Xie Y. ‘A novel membrane potential-sensitive fluorescent dye improves cell-based assays for ion channels.’ J Biomol Screen. 2002 February; 7(1):79-85) which when extracellular is bound to a quenching agent.
Upon cellular depolarisation the negatively charged dye redistributes to the intracellular compartment, unbinding from the membrane impermeant quench agent, yielding an increase in fluorescence. This change in fluorescence is proportional to the change in transmembrane potential which can result from the activity of CFTR. The changes in fluorescence can be monitored in real time by an appropriately equipped fluorescence detector such as the FLIPR (fluorometric imaging plate reader) in 96 or 384-well microtitre plates.
Chinese hamster ovary (CHO) cells stably expressing the AF508-CFTR channel were used for membrane potential experiments. Cells were maintained at 37° C. in 5% v/v CO2 at 100% humidity in Modified Eagles medium (MEM) supplemented with 8% v/v foetal calf serum, 100 μg/ml methotrexate and 100 U/ml penicillin/streptomycin. Cells were grown in 225 cm^2 tissue culture flasks. For membrane potential assays cells were seeded into 96 well plates at 40,000 cells per well, allowed to adhere and then maintained at 26° C. for 48 h to facilitate channel insertion.
The membrane potential screening assay utilised a low chloride ion containing extracellular solution (˜5 mM) combined with a double addition protocol. The first addition was of buffer with or without test compound followed 5 minutes later by an addition of forskolin (1-20 μM)—this protocol favours maximum chloride efflux in response to ΔF508-CFTR activation. The ΔF508-CFTR mediated chloride ion efflux leads to a membrane depolarisation which is optically monitored by the FMP dye.
Low chloride extracellular (mM): 120 Na-gluconate, 1.2 CaCl2), 3.3 KH2PO4, 0.8 K2HPO4, 1.2 MgCl2, 10.0 D-glucose, 20.0 HEPES, pH 7.4 with NaOH FMP dye: made up as per manufacturers' instructions in low chloride extracellular solution detailed above, at 10× final concentration, and stored as 1 mL aliquots at −20° C.
CFTR activity can also be quantified electrophysiologically using the whole-cell configuration of the patch clamp technique (Hamill et al Pflugers Archive 1981). This assay directly measures the currents associated with chloride flow through CFTR channels whilst either maintaining or adjusting the transmembrane voltage. This assay can use either single glass micropipettes or parallel planar arrays to measure CFTR activity from native or recombinant cell systems. Currents measured using parallel planar arrays can be quantified using an appropriately equipped instrument such as the IonWorks Quattro (Molecular Devices) or the Qpatch (Sophion). The Quattro system can measure CFTR currents from either a single cell per recording well (HT configuration) or alternatively from a population of 64 cells per well (Population Patch Clamp PPC) (Finkel A, Wittel A, Yang N, Handran S, Hughes J, Costantin J. ‘Population patch clamp improves data consistency and success rates in the measurement of ionic currents.’ J Biomol Screen. 2006 August; 11(5):488-96).
Chinese hamster ovary (CHO) cells stably expressing the ΔF508-CFTR channel were used for IonWorks Quattro experiments. […]

COPD patients = experiment: Phase II study of Compound A in COPD patients: fibrinogen levels in blood; assay type: in vivo, human; set-up: fibrinogen change from baseline, mean / fibrinogen change from baseline, minimum / fibrinogen change from baseline, median / fibrinogen change from baseline, maximum: unit not given here; conditions: for fibrinogen change from baseline, maximum / fibrinogen change from baseline, mean / fibrinogen change from baseline, median / fibrinogen change from baseline, minimum: value in brackets
Protocol: Patients were randomized and stratified by smoking status (former vs current smokers). The double-blind placebo-controlled treatment period was 28 days (Day 1 to Day 28) and included visits on Days 1, 14 and 28. Eligible patients were randomized in a 2:1 ratio to receive 300 mg b.i.d. of Compound A or matching placebo for 28 consecutive days. Of note, the first 4 patients enrolled randomized in this study received 450 mg b.i.d. of Compound A or placebo, prior to an amendment reducing the dose and thereafter the dose was reduced to 300 mg b.i.d. of Compound A. The single-blind placebo-controlled follow-up period was 28 days. The follow-up period included a visit on Day 29 for key primary and secondary objective efficacy assessments, weekly follow-up contact via telephone, and an End-of-Study (EOS) visit on Day 56.
Blood samples were collected from patients for the analysis of fibrinogen.

[1] = BAS (baseline) visit, 300 mg bid group
[2] = SCR (screening) visit, 300 mg bid group

Chain of OATP1B3 (Q9NPD5 whole entry): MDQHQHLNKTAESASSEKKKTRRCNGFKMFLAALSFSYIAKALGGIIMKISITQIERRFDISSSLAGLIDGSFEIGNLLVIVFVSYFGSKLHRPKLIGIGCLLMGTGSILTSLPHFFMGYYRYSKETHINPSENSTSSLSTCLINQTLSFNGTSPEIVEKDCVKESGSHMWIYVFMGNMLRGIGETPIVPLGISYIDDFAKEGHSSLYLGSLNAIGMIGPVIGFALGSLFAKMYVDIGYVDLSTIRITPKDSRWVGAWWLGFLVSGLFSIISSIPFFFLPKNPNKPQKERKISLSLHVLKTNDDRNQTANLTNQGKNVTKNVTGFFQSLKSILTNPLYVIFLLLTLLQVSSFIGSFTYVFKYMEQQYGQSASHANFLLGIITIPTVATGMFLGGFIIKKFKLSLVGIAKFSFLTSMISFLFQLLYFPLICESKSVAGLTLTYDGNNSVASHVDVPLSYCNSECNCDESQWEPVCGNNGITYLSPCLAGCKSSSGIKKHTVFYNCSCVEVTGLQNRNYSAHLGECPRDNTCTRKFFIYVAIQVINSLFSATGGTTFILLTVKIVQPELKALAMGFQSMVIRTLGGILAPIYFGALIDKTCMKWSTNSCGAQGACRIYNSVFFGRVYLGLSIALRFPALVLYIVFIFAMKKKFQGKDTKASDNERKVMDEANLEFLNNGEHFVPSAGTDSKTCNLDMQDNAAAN

In the case of `COc1nc(C(=O)NC[C@](C)(O)C(F)(F)F)c(N)cc1C(F)(F)F` (single isomer, unassigned) [Example 5], the “effect on co-medications mainly metabolized by CYP2B6” value (CYP2B6) is reported as “induce”, the “inhibition of OATP1B3” value (OATP1B3) is reported as “Weak in vitro inhibition” and the EC50 (ΔF508-CFTR) is reported as 50 nM. For the same compound, the fibrinogen level, maximum (COPD patients; [1]) was 4.9 g/L, the fibrinogen level, mean (COPD patients; [1]) was 3.28 g/L and the fibrinogen level, median (COPD patients; [1]) was 3.16 g/L. For the same compound, the fibrinogen level, minimum (COPD patients; [1]) was 2 g/L, the fibrinogen level, maximum (COPD patients; D14, 300 mg bid) was 4.4 g/L and the fibrinogen level, mean (COPD patients; D14, 300 mg bid) was 3.1 g/L. The fibrinogen level, median (COPD patients; D14, 300 mg bid) was 3.03 g/L, the fibrinogen level, minimum (COPD patients; D14, 300 mg bid) was 1.6 g/L and the “fibrinogen change from baseline, maximum” value (COPD patients; D14, 300 mg bid) was 1.7. For the same compound, the “fibrinogen change from baseline, mean” value (COPD patients; D14, 300 mg bid) was −0.18, the “fibrinogen change from baseline, median” value (COPD patients; D14, 300 mg bid) was −0.20 and the “fibrinogen change from baseline, minimum” value (COPD patients; D14, 300 mg bid) was −1.7. The fibrinogen level, maximum (COPD patients; D29, 300 mg bid) was 4.4 g/L, the fibrinogen level, mean (COPD patients; D29, 300 mg bid) was 3.02 g/L and the fibrinogen level, median (COPD patients; D29, 300 mg bid) was 2.98 g/L. The fibrinogen level, minimum (COPD patients; D29, 300 mg bid) was 1.6 g/L, the “fibrinogen change from baseline, maximum” value (COPD patients; D29, 300 mg bid) was 1.3 and the “fibrinogen change from baseline, mean” value (COPD patients; D29, 300 mg bid) was −0.24. The “fibrinogen change from baseline, median” value (COPD patients; D29, 300 mg bid) was −0.17, the “fibrinogen change from baseline, minimum” value (COPD patients; D29, 300 mg bid) was −1.8 and the “mean change from baseline over time for fibrinogen (FIG. 1)” value (COPD patients; Day 14 and 29 during treatment period) was “decrease of fibrinogen levels”. For the same compound, the “estimated difference (Compound A to placebo) in mean change from baseline fibrinogen” value (COPD patients; Day 29, 300 mg bid for 28 days, 90% CI −0.65, −0.14, p-value=0.006) was -0.40 g/L, the “Fibrinogen mean improvement over placebo” value (COPD patients; Day 29, p-value=0.006) was 40 mg/dL and the fibrinogen level, mean (COPD patients; EOS (Day 56, 28 days after last dose), 300 mg bid) was 3.24 g/L. For the same compound, the fibrinogen level, maximum (COPD patients; EOS, 300 mg bid) was 6.6 g/L, the fibrinogen level, median (COPD patients; EOS, 300 mg bid) was 3.16 g/L and the fibrinogen level, minimum (COPD patients; EOS, 300 mg bid) was 2 g/L. For the same compound, the “fibrinogen change from baseline, maximum” value (COPD patients; EOS, 300 mg bid) was 3.0, the “fibrinogen change from baseline, mean” value (COPD patients; EOS, 300 mg bid) was −0.03 and the “fibrinogen change from baseline, median” value (COPD patients; EOS, 300 mg bid) was −0.11. The “fibrinogen change from baseline, minimum” value (COPD patients; EOS, 300 mg bid) was −1.7, the fibrinogen level, maximum (COPD patients; [2]) was 4.9 g/L and the fibrinogen level, mean (COPD patients; [2]) was 3.03 g/L. It also gave a fibrinogen level, median (COPD patients; [2]) of 3 g/L and a fibrinogen level, minimum (COPD patients; [2]) of 1.1 g/L.
